# Values joined by “and” are separate entries in the source; they are usually repeats but may differ in a detail not shown here. Equal values may be shown once.
# System: 287954-098-R-J1 tumor spheroid viability
# Assay: Anticancer human tumor 287954-098-R-J1 patient-derived Ewing sarcoma cell line growth inhibition
# Conditions: spheroids with HUVEC and MSC; for viability, T/C: stronger effect = lower value
# How it was run: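 Complex spheroids of malignant cells with endothelial cells and mesenchymal stem cells; agents alone or combined, from near clinical Cmax (or 10 microM if unknown) down in half-log steps, 0.25% DMSO final.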
# 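Also: spheroids exposed to compound for 7 days before viability readout.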
# 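For viability, T/C in this document: luminescent signal taken as surrogate of viable cell content; 100% = DMSO vehicle control viability and lower means growth inhibition.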
structure (smiles),measurement,setting,value
COc1ccc([C@@H](O)c2cc(-c3ncnc4cc(N5CCOCC5)ccc34)c(F)cc2Cl)nn1 + CC[C@@]1(O)C(=O)OCc2c1cc1n(c2=O)Cc2cc3c(CN(C)C)c(O)ccc3nc2-1,IC50,"curve of first compound, second compound 0.003 µM",> 10000 nM
same,IC50,"curve of first compound, second compound 0.00949 µM",> 10000 nM
same,IC50,"curve of first compound, second compound 0.03 µM",< 31.6 nM
same,IC50,"curve of first compound, second compound 0.0949 µM",< 31.6 nM
same,IC50,"curve of first compound, second compound 0.3 µM",< 31.6 nM
same,"viability, T/C","second compound 0.003 µM, first compound 0.0316 µM",91.5%
same,"viability, T/C","second compound 0.003 µM, first compound 0.1 µM",97.4%
same,"viability, T/C","second compound 0.003 µM, first compound 0.316 µM",95.8%
same,"viability, T/C","second compound 0.003 µM, first compound 1 µM",105%
same,"viability, T/C","second compound 0.003 µM, first compound 3.16 µM",96.5%
same,"viability, T/C","second compound 0.003 µM, first compound 10 µM",83.9%
same,"viability, T/C","second compound 0.00949 µM, first compound 0.0316 µM",94.3%
same,"viability, T/C","second compound 0.00949 µM, first compound 0.1 µM",94.1%
same,"viability, T/C","second compound 0.00949 µM, first compound 0.316 µM",100%
same,"viability, T/C","second compound 0.00949 µM, first compound 1 µM",92.1%
same,"viability, T/C","second compound 0.00949 µM, first compound 3.16 µM",93.2%
same,"viability, T/C","second compound 0.00949 µM, first compound 10 µM",54.9%
same,"viability, T/C","second compound 0.03 µM, first compound 0.0316 µM",21.7%
same,"viability, T/C","second compound 0.03 µM, first compound 0.1 µM",24.2%
same,"viability, T/C","second compound 0.03 µM, first compound 0.316 µM",11.3%
same,"viability, T/C","second compound 0.03 µM, first compound 1 µM",5.39%
same,"viability, T/C","second compound 0.03 µM, first compound 3.16 µM",0.97%
same,"viability, T/C","second compound 0.03 µM, first compound 10 µM",5.74%
same,"viability, T/C","second compound 0.0949 µM, first compound 0.0316 µM",1.23%
same,"viability, T/C","second compound 0.0949 µM, first compound 0.1 µM",1.03%
same,"viability, T/C","second compound 0.0949 µM, first compound 0.316 µM",1.21%
same,"viability, T/C","second compound 0.0949 µM, first compound 1 µM",0.99%
same,"viability, T/C","second compound 0.0949 µM, first compound 3.16 µM",0.52%
same,"viability, T/C","second compound 0.0949 µM, first compound 10 µM",0.59%
same,"viability, T/C","second compound 0.3 µM, first compound 0.0316 µM",1.41%
same,"viability, T/C","second compound 0.3 µM, first compound 0.1 µM",1.01%
same,"viability, T/C","second compound 0.3 µM, first compound 0.316 µM",1.15%
same,"viability, T/C","second compound 0.3 µM, first compound 1 µM",0.88%
same,"viability, T/C","second compound 0.3 µM, first compound 3.16 µM",0.44%
same,"viability, T/C","second compound 0.3 µM, first compound 10 µM",0.41%
[2H]c1nc(C)nc([2H])c1-c1cc(NC[C@@H](C)c2cccc3c(C(=O)NC)ccnc23)ncn1,"viability, T/C",compound 0.0316 µM,96.4% and 109% and 110%
same,"viability, T/C",compound 0.1 µM,101% and 107% and 112%
same,"viability, T/C",compound 0.316 µM,95.5% and 108% and 106%
same,"viability, T/C",compound 1 µM,104% and 102% and 108%
same,"viability, T/C",compound 3.16 µM,98.3% and 96.3% and 100%
same,"viability, T/C",compound 10 µM,101% and 103% and 109%
same,IC50,curve of compound,> 10000 nM
CNCc1ccc(-c2cc(-c3nc(-c4ccc(S(=O)(=O)C(C)C)cc4)cnc3N)on2)cc1,"viability, T/C",compound 0.00949 µM,103% (2×) and 109%
same,"viability, T/C",compound 0.03 µM,108% and 117% and 107%
same,"viability, T/C",compound 0.0949 µM,110% and 112% and 105%
same,"viability, T/C",compound 0.3 µM,107% and 103% (2×)
same,"viability, T/C",compound 0.949 µM,0.28% and 0.55% and 0.27%
same,"viability, T/C",compound 3 µM,0.18% and 0.53% and 0.23%
same,IC50,curve of compound,555 nM and 545 nM and 542 nM
CC1COCCN1c1cc(-c2ccnn2C)c2ccnc(-c3ccn[nH]3)c2n1 (stereo not drawn),"viability, T/C",compound 0.0316 µM,107% and 114% and 106%
same,"viability, T/C",compound 0.1 µM,78.3% and 89.9% and 97.7%
same,"viability, T/C",compound 0.316 µM,22.6% and 21.9% and 32.2%
same,"viability, T/C",compound 1 µM,6.79% and 3.9% and 8.44%
same,"viability, T/C",compound 3.16 µM,1.99% and 1.74% and 1.91%
same,"viability, T/C",compound 10 µM,3.29% and 2.26% and 3.3%
same,IC50,curve of compound,180 nM and 197 nM and 232 nM
Cn1ncnc1[C@H]1c2n[nH]c(=O)c3cc(F)cc(c23)N[C@@H]1c1ccc(F)cc1,"viability, T/C",compound 0.00949 µM,112% and 99.5% and 92.6%
same,"viability, T/C",compound 0.03 µM,101% and 104% and 107%
same,"viability, T/C",compound 0.0949 µM,98.5% and 97% and 105%
same,"viability, T/C",compound 0.3 µM,97.8% and 95.6% and 94.2%
same,"viability, T/C",compound 0.949 µM,2.74% and 25.4% and 16.7%
same,"viability, T/C",compound 3 µM,2.53% and 1.95% and 1.33%
same,IC50,curve of compound,536 nM and 633 nM and 579 nM
CC1COCCN1c1cc(-c2ccnn2C)c2ccnc(-c3ccn[nH]3)c2n1 (stereo not drawn) + Cn1nnc2c(C(N)=O)ncn2c1=O,IC50,"curve of first compound, second compound 1 µM",171 nM
same,IC50,"curve of first compound, second compound 3.16 µM",187 nM
same,IC50,"curve of first compound, second compound 10 µM",96.3 nM
same,IC50,"curve of first compound, second compound 31.6 µM",98.6 nM
same,IC50,"curve of first compound, second compound 100 µM",< 31.6 nM
same,"viability, T/C","second compound 1 µM, first compound 0.0316 µM",112%
same,"viability, T/C","second compound 1 µM, first compound 0.1 µM",75.2%
same,"viability, T/C","second compound 1 µM, first compound 0.316 µM",21%
same,"viability, T/C","second compound 1 µM, first compound 1 µM",5.68%
same,"viability, T/C","second compound 1 µM, first compound 3.16 µM",1.55%
same,"viability, T/C","second compound 1 µM, first compound 10 µM",2.68%
same,"viability, T/C","second compound 3.16 µM, first compound 0.0316 µM",120%
same,"viability, T/C","second compound 3.16 µM, first compound 0.1 µM",91.1%
same,"viability, T/C","second compound 3.16 µM, first compound 0.316 µM",15.7%
same,"viability, T/C","second compound 3.16 µM, first compound 1 µM",4.89%
same,"viability, T/C","second compound 3.16 µM, first compound 3.16 µM",1.74%
same,"viability, T/C","second compound 3.16 µM, first compound 10 µM",2.56%
same,"viability, T/C","second compound 10 µM, first compound 0.0316 µM",114%
same,"viability, T/C","second compound 10 µM, first compound 0.1 µM",47.9%
same,"viability, T/C","second compound 10 µM, first compound 0.316 µM",9.18%
same,"viability, T/C","second compound 10 µM, first compound 1 µM",5.1%
same,"viability, T/C","second compound 10 µM, first compound 3.16 µM",1.63%
same,"viability, T/C","second compound 10 µM, first compound 10 µM",2.11%
same,"viability, T/C","second compound 31.6 µM, first compound 0.0316 µM",110%
same,"viability, T/C","second compound 31.6 µM, first compound 0.1 µM",49.3%
same,"viability, T/C","second compound 31.6 µM, first compound 0.316 µM",8.98%
same,"viability, T/C","second compound 31.6 µM, first compound 1 µM",3.51%
same,"viability, T/C","second compound 31.6 µM, first compound 3.16 µM",1.69%
same,"viability, T/C","second compound 31.6 µM, first compound 10 µM",2.41%
same,"viability, T/C","second compound 100 µM, first compound 0.0316 µM",12%
same,"viability, T/C","second compound 100 µM, first compound 0.1 µM",4.47%
same,"viability, T/C","second compound 100 µM, first compound 0.316 µM",2.32%
same,"viability, T/C","second compound 100 µM, first compound 1 µM",1.6%
same,"viability, T/C","second compound 100 µM, first compound 3.16 µM",1.28%
same,"viability, T/C","second compound 100 µM, first compound 10 µM",2.24%
